Laboratory results taken from PMC8219695 (Nature Communications, 2021).
“And” between values parts separate entries of the source, which are not always exact repeats. Equal values may be shown once.

Tests used:
[1] = target: T1, mKOR (Mus musculus, UniProt P33534); assay: [125I]BNtxA radioligand competition binding, mouse KOR
T1 construct: expressed in transfected cells; membranes

[2] = target: hDOR (Homo sapiens, UniProt P41143); assay: CAMYEL BRET cAMP agonist assay at hDOR; assay type: cell-based; details: for Agonist activity of 7OH analogs at hDOR: single replicate values, Supplementary Figure 7A, listed as 7-OH-Mitragynine
[3] = target: T2, mMOR (Mus musculus, UniProt P42866); assay: CAMYEL BRET cAMP agonist assay at mMOR; assay type: cell-based; details: for cAMP %: single replicates, source data Fig 6b
T2 construct: signal peptide (heterologous, not specified) (N); expressed in transfected cells; pcDNA3.1(+) construct made in house

[4] = target: T3, hMOR (Homo sapiens, UniProt P35372); assay: CAMYEL BRET cAMP agonist assay at hMOR; assay type: cell-based; details: for cAMP %: hMOR, single replicates, source data Fig 6c
T3 construct: expressed in transfected cells; plasmid a gift from Dr. Nevin Lambert

[5] = target: T4, rKOR (Rattus norvegicus, UniProt P34975); assay: CAMYEL BRET cAMP agonist assay at rKOR; assay type: cell-based; details: individual replicates, Supplementary Figure 8B source data
T4 construct: expressed in transfected cells

[6] = target: hKOR (Homo sapiens, UniProt P41145); assay: CAMYEL BRET cAMP agonist assay at hKOR; assay type: cell-based; details: individual replicates, Supplementary Figure 8A source data
[7] = target: T5, mDOR (Mus musculus, UniProt P32300); assay: [125I]BNtxA radioligand competition binding, mouse DOR
T5 construct: expressed in transfected cells

[8] = test system: CD1 mice; assay: Tail-flick antinociception in CD1 mice; assay type: in vivo, mouse; details: Fig 9b; 7OH 2 mg/kg, sc; individual animals
[9] = target: T2, mMOR; assay: [125I]BNtxA radioligand competition binding, mouse MOR
[10] = target: T5, mDOR; assay: CAMYEL BRET cAMP agonist assay at mDOR; assay type: cell-based; details: for Agonist activity of 7OH analogs at mDOR: single replicate values, Supplementary Figure 7B, listed as 7-OH-Mitragynine

## CC[C@@H]1CN2CC[C@@]3(O)C(=Nc4cccc(OC)c43)[C@@H]2C[C@@H]1/C(=C\OC)C(=O)OC [7OH, 7-Hydroxymitragynine, reference compound]
[1]
  Ki: 119 ± 2.1 nM
[2]
  EC50: 99.9 nM
[2]; Log[drug] (M) -5
  Agonist activity of 7OH analogs at hDOR: 59.4902 and 54.7394 and 48.113 and 45.4731 and 42.3531 and 41.8085 and 33.7355 and 48.8189 and 36.1755
[2]; Log[drug] (M) -6
  Agonist activity of 7OH analogs at hDOR: 47.0072 and 54.0661 and 57.5431 and 39.2612 and 45.3193 and 38.3255 and 32.249 and 29.9213 and 37.5943
[2]; Log[drug] (M) -7
  Agonist activity of 7OH analogs at hDOR: 27.5943 and 29.9093 and 13.7827 and 13.3703 and 19.5028 and 21.8057 and 32.1543 and 37.3674 and 42.4632
[2]; Log[drug] (M) -8
  Agonist activity of 7OH analogs at hDOR: 27.0326 and 26.8622 and 6.318 and -2.952 and 5.202 and 3.255 and 18.5072 and 16.8026 and 16.758
[2]; Log[drug] (M) -9
  Agonist activity of 7OH analogs at hDOR: 15.8661 and 3.122 and 22.479 and 1.833 and -4.308 and 2.475 and 15.4988 and 8.368 and 7.075
[2]; Log[drug] (M) -10
  Agonist activity of 7OH analogs at hDOR: 31.7942 and 19.5741 and 16.1123 and 10.5331 and 9.484 and 5.51 and 21.6698
[2]; Log[drug] (M) -11
  Agonist activity of 7OH analogs at hDOR: 10.918 and -1.6818 and 2.572 and 2.605 and 5.418 and 12.5121 and 11.3973 and 0.7522 and -0.994
[2]; Log[drug] (M) -13
  Agonist activity of 7OH analogs at hDOR: 3.025 and -6.776 and 3.7513 and 10.1702 and 6.174 and 15.4423 and -4.715 and 5.3718 and -0.6565
[2]; read-out: Emax
  Emax: 45%
[3]
  EC50: 48 nM
[3]; Log[drug] (M) -5, mMOR
  cAMP %: 54.7418% and 39.306% and 62.8715% and 90.7674% and 85.3805% and 81.3701% and 80.1578% and 78.2326% and 79.4832%
[3]; Log[drug] (M) -6, mMOR
  cAMP %: 51.4904% and 44.0439% and 41.1377% and 71.7778% and 87.0279% and 84.9352% and 65.6946% and 62.0616% and 68.2077%
[3]; Log[drug] (M) -7, mMOR
  cAMP %: 31.3362% and 29.5321% and 20.0587% and 64.2387% and 61.8389% and 74.7851% and 53.7172% and 48.585% and 45.7301%
[3]; Log[drug] (M) -8, mMOR
  cAMP %: 9.25% and 16.4555% and 10.0292% and 22.5933% and 31.4368% and 25.3107% and 17.3146% and 8.444% and 13.6716%
[3]; Log[drug] (M) -9, mMOR
  cAMP %: 6.25% and 5.067% and 3.569% and -0.5857% and 7.672% and -7.0867% and 8.23% and -1.022% and 10.8029%
[3]; Log[drug] (M) -10, mMOR
  cAMP %: 12.6265% and -11.9755% and 9.001% and 8.7384% and -5.2017% and 8.648% and -2.705% and -3.188% and 5.894%
[3]; Log[drug] (M) -11, mMOR
  cAMP %: -0.9102% and -0.5945% and 1.505% and 10.3177% and 11.6% and 5.328% and 6.124% and -1.189% and -0.6754%
[3]; Log[drug] (M) -13, mMOR, cAMP inhibition as % of DAMGO
  cAMP %: 3.306% and 2.892% and -4.359% and 9.797% and 10.0834% and 11.919% and 5.129% and 4.129% and 1.2769%
[3]; mMOR, maximal inhibitory effect on cAMP levels relative to DAMGO
  Emax: 70%
[4]
  Emax: 96%
[4]; Log[drug] (M) -5
  cAMP %: 88.4213% and 90.605% and 95.9962% and 96.6598% and 92.1499% and 89.6322% and 104.97% and 106.65% and 107.127%
[4]; Log[drug] (M) -6
  cAMP %: 85.9913% and 88.2699% and 100.077% and 95.6224% and 98.6028% and 95.7246% and 101.519% and 93.2699% and 100.898%
[4]; Log[drug] (M) -7
  cAMP %: 74.1823% and 79.6011% and 86.6364% and 71.3053% and 75.9463% and 78.9671% and 86.5888% and 87.8073% and 87.9307%
[4]; Log[drug] (M) -8
  cAMP %: 47.9539% and 40.673% and 45.9228% and 28.5173% and 37.309% and 37.8989% and 36.8098% and 40.2437% and 43.4509%
[4]; Log[drug] (M) -9
  cAMP %: -5.159% and -0.2818% and 15.9197% and 2.836% and 1.425% and -4.261% and 10.2218% and -0.8382% and 19.3398%
[4]; Log[drug] (M) -10
  cAMP %: 2.406% and -6.901% and 4.4945% and -1.371% and 5.724% and -0.06095% and -1.689% and 0.384% and 1.305%
[4]; Log[drug] (M) -11
  cAMP %: 10.0741% and 2.867% and -1.276% and 14.2755% and -12.2251% and 5.789% and 12.061% and -4.689% and 0.8824%
[4]; Log[drug] (M) -13, cAMP inhibition as % of DAMGO
  cAMP %: 3.998% and -9.01% and 9.508% and 14.9262% and 7.334% and 14.594% and 2.431% and 9.511% and 1.874%
[5]; Log [drug](M) -5
  Agonist activity of 7OH analogs at rKOR: 51.4853 and 69.9742 and 40.1102 and 17.9877 and 23.0672 and 30.6086 and 23.1026 and 36.1112 and 26.5447
[5]; Log [drug](M) -6
  Agonist activity of 7OH analogs at rKOR: 50.3386 and 47.4584 and 37.1736 and 16.4913 and 27.1082 and 15.3746 and 22.6508 and 23.988 and 23.2951
[5]; Log [drug](M) -7
  Agonist activity of 7OH analogs at rKOR: 32.3706 and 5.504 and 6.859 and 19.3779 and 10.5115 and 15.4551 and 8.6 and 9.151 and 16.9313
[5]; Log [drug](M) -8
  Agonist activity of 7OH analogs at rKOR: 4.174 and 5.52 and 21.8967 and -3.058 and 2.36 and 0.6978 and 14.0563 and 6.31 and 24.1641
[5]; Log [drug](M) -9
  Agonist activity of 7OH analogs at rKOR: 4.922 and -12.3356 and 11.254 and 8.301 and 17.6392 and 14.4513 and 3.607 and 6.21 and -1.551
[5]; Log [drug](M) -10
  Agonist activity of 7OH analogs at rKOR: -1.1625 and -7.143 and 8.305 and 14.5638 and 5.983 and 1.382 and -0.5163 and -2.6368 and 4.024
[5]; Log [drug](M) -11
  Agonist activity of 7OH analogs at rKOR: 3.848 and 0.4662 and 0.6482 and 7.796 and 8.5204 and -1.878 and 0.3369 and -2.372 and 2.035
[5]; Log [drug](M) -13
  Agonist activity of 7OH analogs at rKOR: 5.7561 and 2.46 and -0.5992 and 11.3924 and -1.857 and 11.6902 and 1.603 and -2.596 and 3.807
[6]; Log [drug](M) -5
  Agonist activity of 7OH analogs at hKOR: 25.1107 and 37.2516 and 25.09 and 18.6326 and 7.697 and 7.056 and 12.3573 and 15.4119 and 15.9917
[6]; Log [drug](M) -6
  Agonist activity of 7OH analogs at hKOR: 26.3842 and 27.9158 and 17.2556 and 19.1124 and 15.0208 and 6.652 and 13.1771 and 3.299 and 8.814
[6]; Log [drug](M) -7
  Agonist activity of 7OH analogs at hKOR: 10.6234 and 4.588 and 26.8644 and 8.68 and -0.2355 and 14.6509 and 3.557 and -6.963 and -8.284
[6]; Log [drug](M) -8
  Agonist activity of 7OH analogs at hKOR: 5.978 and -10.4494 and 7.122 and 8.973 and 3.679 and 0.5669 and 3.537 and -8.354 and -5.217
[6]; Log [drug](M) -9
  Agonist activity of 7OH analogs at hKOR: 4.358 and -4.206 and -18.6896 and -3.311 and 1.614 and -2.537 and 1.131 and 5.305 and 46.2002
[6]; Log [drug](M) -10
  Agonist activity of 7OH analogs at hKOR: -9.33 and 0.6018 and -2.152 and 0.113 and -1.397 and 4.8046 and -5.84 and -6.29 and 4.4418
[6]; Log [drug](M) -11
  Agonist activity of 7OH analogs at hKOR: 2.533 and -16.0954 and -7.281 and -0.5606 and -1.386 and 5.188 and 3.6558 and -6.195 and -4.675
[6]; Log [drug](M) -13
  Agonist activity of 7OH analogs at hKOR: -2.907 and -1.906 and 4.813 and 2.257 and -10 and 7.743 and -0.9804 and -0.456 and 1.436
[7]
  Ki: 88.5 ± 9.9 nM
[8]
  Tail flick (%MPE): 100.00 %MPE (8×) and 57.97 %MPE and 52.05 %MPE
  Tail flick latency: 10 (8×) and 7.1 and 6.5
[9]
  Ki: 21.5 ± 0.8 nM
[10]
  EC50: 71.4 nM
[10]; Log[drug] (M) -5
  Agonist activity of 7OH analogs at mDOR: 79.5205 and 79.1947 and 68.9488 and 85.2247 and 78.2035 and 78.3957 and 62.0758 and 81.7668 and 72.4775
[10]; Log[drug] (M) -6
  Agonist activity of 7OH analogs at mDOR: 49.9165 and 58.342 and 65.4236 and 68.6722 and 65.6062 and 68.2461 and 72.0352 and 62.2673 and 61.4936
[10]; Log[drug] (M) -7
  Agonist activity of 7OH analogs at mDOR: 29.0999 and 46.5592 and 41.3409 and 38.1857 and 36.2209 and 62.8298 and 64.7985 and 75.1004
[10]; Log[drug] (M) -8
  Agonist activity of 7OH analogs at mDOR: 17.0946 and 20.9939 and 16.1181 and 8.745 and 16.0659 and 5.863 and 49.6952 and 40.7941 and 63.5779
[10]; Log[drug] (M) -9
  Agonist activity of 7OH analogs at mDOR: 27.3274 and 1.192 and 34.2965 and 12.9525 and -4.552 and -8.401 and 25.2583 and 24.354 and 24.6431
[10]; Log[drug] (M) -10
  Agonist activity of 7OH analogs at mDOR: 39.904 and 39.7156 and 42.1881 and 15.8228 and 9.006 and 14.7091 and 41.1226 and 23.2827 and 29.2586
[10]; Log[drug] (M) -11
  Agonist activity of 7OH analogs at mDOR: 3.455 and 6.714 and 6.951 and -3.421 and 2.4315 and 1.875 and 9.138 and 13.5385
[10]; Log[drug] (M) -13
  Agonist activity of 7OH analogs at mDOR: 3.619 and 5.368 and -8.987 and -7.007 and 2.297 and 7.3103 and -1.541 and -0.9135 and 2.455
[10]; read-out: Emax
  Emax: 72%
